The numbers were not newly measured in patent US5516904A, “Acetylenes disubstituted with a heteroaromatic group and a substituted phenyl group having retinoid like activity” (Allergan, Inc., priority 1995, dated 1996), which cites them from elsewhere.

In the data set the test system is ornithine decarboxylase (ODC). The settings on record: result in words; literature background.

Regarding `CC1=C(/C=C/C(C)=C/C=C/C(C)=C/C(=O)O)C(C)(C)CCC1` [Retionic acid, retinoic acid], the “inhibition of induction of ODC activity by TPA” value was “inhibits”.
